Results reported in PubChem BioAssay (NCI).
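A five-concentration, 48-hour dose response in 96-well plates underlies each endpoint, interpolated linearly between surrounding concentrations. The concentration for 50% growth inhibition is given as GI50. TGI denotes the concentration required for complete inhibition of growth.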

How the values were obtained:
Assay in all cases: NCI tumour cell line growth inhibition, 48 h
SF-295 CNS = tested on: SF-295 CNS
LOX IMVI melanoma = tested on: LOX IMVI melanoma
SK-MEL-28 melanoma = tested on: SK-MEL-28 melanoma
MCF7 breast = tested on: MCF7 breast
SR leukemia = tested on: SR leukemia
HS 578T breast = tested on: HS 578T breast
A498 renal = tested on: A498 renal
ACHN renal = tested on: ACHN renal
UO-31 renal = tested on: UO-31 renal
M14 melanoma = tested on: M14 melanoma
NCI/ADR-RES ovarian = tested on: NCI/ADR-RES ovarian
MDA-MB-231 breast = tested on: MDA-MB-231 breast
CAKI-1 renal = tested on: CAKI-1 renal
HT29 colon = tested on: HT29 colon
RXF 393 renal = tested on: RXF 393 renal
SK-MEL-2 melanoma = tested on: SK-MEL-2 melanoma
T-47D breast = tested on: T-47D breast
SK-MEL-5 melanoma = tested on: SK-MEL-5 melanoma
MDA-MB-435 = tested on: MDA-MB-435
EKVX NSCLC = tested on: EKVX NSCLC
UACC-257 melanoma = tested on: UACC-257 melanoma
PC-3 prostate = tested on: PC-3 prostate
RPMI-8226 leukemia = tested on: RPMI-8226 leukemia
HCT-15 colon = tested on: HCT-15 colon
TK-10 renal = tested on: TK-10 renal
NCI-H460 lung = tested on: NCI-H460 lung
SNB-75 CNS = tested on: SNB-75 CNS
SW-620 colon = tested on: SW-620 colon
A549 NSCLC = tested on: A549 NSCLC
CCRF-CEM leukemia = tested on: CCRF-CEM leukemia
SK-OV-3 ovarian = tested on: SK-OV-3 ovarian
MALME-3M melanoma = tested on: MALME-3M melanoma
IGROV1 ovarian = tested on: IGROV1 ovarian
SNB-19 CNS = tested on: SNB-19 CNS
MOLT-4 leukemia = tested on: MOLT-4 leukemia
HOP-62 NSCLC = tested on: HOP-62 NSCLC
OVCAR-3 ovarian = tested on: OVCAR-3 ovarian
U251 CNS = tested on: U251 CNS
NCI-H226 lung = tested on: NCI-H226 lung
NCI-H23 lung = tested on: NCI-H23 lung
COLO 205 colon = tested on: COLO 205 colon
HL-60(TB) leukemia = tested on: HL-60(TB) leukemia
DU-145 prostate = tested on: DU-145 prostate
OVCAR-4 ovarian = tested on: OVCAR-4 ovarian
SF-268 CNS = tested on: SF-268 CNS
OVCAR-5 ovarian = tested on: OVCAR-5 ovarian
UACC-62 melanoma = tested on: UACC-62 melanoma
K-562 leukemia = tested on: K-562 leukemia
HOP-92 NSCLC = tested on: HOP-92 NSCLC
OVCAR-8 ovarian = tested on: OVCAR-8 ovarian
MDA-N = tested on: MDA-N
HCC-2998 colon = tested on: HCC-2998 colon
KM12 colon = tested on: KM12 colon
SN12C renal = tested on: SN12C renal
SF-539 CNS = tested on: SF-539 CNS
786-0 renal = tested on: 786-0 renal
HCT-116 colon = tested on: HCT-116 colon
BT-549 breast = tested on: BT-549 breast
NCI-H522 lung = tested on: NCI-H522 lung

Structure (SMILES): CC(C)c1ccccc1SCc1cc(=O)cc(CSc2ccccc2C(C)C)o1
- TGI (SF-295 CNS): 67.5 µM
- TGI (LOX IMVI melanoma): 84.4 µM
- TGI (SK-MEL-28 melanoma): 57.8 µM
- TGI (MCF7 breast): 57.5 µM
- TGI (SR leukemia): > 100 µM
- TGI (HS 578T breast): 32.9 µM
- TGI (A498 renal): 40.9 µM
- TGI (ACHN renal): > 100 µM
- TGI (UO-31 renal): > 100 µM
- TGI (M14 melanoma): 49.5 µM
- TGI (NCI/ADR-RES ovarian): 41.5 µM
- TGI (MDA-MB-231 breast): 49.5 µM
- TGI (CAKI-1 renal): 49.4 µM
- TGI (HT29 colon): 41.2 µM
- TGI (RXF 393 renal): > 100 µM
- TGI (SK-MEL-2 melanoma): 34.5 µM
- TGI (T-47D breast): > 100 µM
- TGI (SK-MEL-5 melanoma): > 100 µM
- TGI (MDA-MB-435): 32.8 µM
- TGI (EKVX NSCLC): 38.4 µM
- TGI (UACC-257 melanoma): 51 µM
- TGI (PC-3 prostate): 30.7 µM
- TGI (RPMI-8226 leukemia): > 100 µM
- TGI (HCT-15 colon): 94.3 µM
- TGI (TK-10 renal): 38.7 µM
- TGI (NCI-H460 lung): 69.7 µM
- TGI (SNB-75 CNS): 36.5 µM
- TGI (SW-620 colon): 81.2 µM
- TGI (A549 NSCLC): > 100 µM
- TGI (CCRF-CEM leukemia): 95.6 µM
- TGI (SK-OV-3 ovarian): 48 µM
- TGI (MALME-3M melanoma): 44.4 µM
- TGI (IGROV1 ovarian): 33.1 µM
- TGI (SNB-19 CNS): > 100 µM
- TGI (MOLT-4 leukemia): 93.3 µM
- TGI (HOP-62 NSCLC): 43.6 µM
- TGI (OVCAR-3 ovarian): 39.2 µM
- TGI (U251 CNS): 86.8 µM
- TGI (NCI-H226 lung): 41.7 µM
- TGI (NCI-H23 lung): > 100 µM
- TGI (COLO 205 colon): > 100 µM
- TGI (HL-60(TB) leukemia): 82 µM
- TGI (DU-145 prostate): 55.4 µM
- TGI (OVCAR-4 ovarian): 46.9 µM
- TGI (SF-268 CNS): 33.4 µM
- TGI (OVCAR-5 ovarian): 34.7 µM
- TGI (UACC-62 melanoma): 36.2 µM
- TGI (K-562 leukemia): > 100 µM
- TGI (HOP-92 NSCLC): 36.7 µM
- TGI (OVCAR-8 ovarian): 54.9 µM
- TGI (MDA-N): 44.9 µM
- TGI (HCC-2998 colon): 84.5 µM
- TGI (KM12 colon): 32.9 µM

Structure (SMILES): Cn1cc(C2=C(Nc3ccccc3)C(=O)NC2=O)c2ccccc21
- GI50 (SF-295 CNS): > 25 µM
- TGI (SF-295 CNS): > 25 µM
- GI50 (LOX IMVI melanoma): > 25 µM
- TGI (LOX IMVI melanoma): > 25 µM
- GI50 (SK-MEL-28 melanoma): > 25 µM
- TGI (SK-MEL-28 melanoma): > 25 µM
- GI50 (MCF7 breast): > 25 µM
- TGI (MCF7 breast): > 25 µM
- GI50 (SR leukemia): > 25 µM
- TGI (SR leukemia): > 25 µM
- GI50 (HS 578T breast): > 25 µM
- TGI (HS 578T breast): > 25 µM
- GI50 (A498 renal): > 25 µM
- TGI (A498 renal): > 25 µM
- GI50 (ACHN renal): > 25 µM
- TGI (ACHN renal): > 25 µM
- GI50 (UO-31 renal): > 19.5 µM
- TGI (UO-31 renal): > 25 µM
- GI50 (M14 melanoma): > 25 µM
- TGI (M14 melanoma): > 25 µM
- GI50 (NCI/ADR-RES ovarian): > 25 µM
- TGI (NCI/ADR-RES ovarian): > 25 µM
- GI50 (MDA-MB-231 breast): > 25 µM
- TGI (MDA-MB-231 breast): > 25 µM
- GI50 (CAKI-1 renal): > 25 µM
- TGI (CAKI-1 renal): > 25 µM
- GI50 (HT29 colon): 14.7 µM
- TGI (HT29 colon): > 25 µM
- GI50 (RXF 393 renal): > 25 µM
- TGI (RXF 393 renal): > 25 µM
- GI50 (SN12C renal): > 25 µM
- TGI (SN12C renal): > 25 µM
- GI50 (SK-MEL-2 melanoma): > 25 µM
- TGI (SK-MEL-2 melanoma): > 25 µM
- GI50 (T-47D breast): 16.2 µM
- TGI (T-47D breast): > 25 µM
- GI50 (SK-MEL-5 melanoma): > 25 µM
- TGI (SK-MEL-5 melanoma): > 25 µM
- GI50 (MDA-MB-435): > 25 µM
- TGI (MDA-MB-435): > 25 µM
- GI50 (SF-539 CNS): > 25 µM
- TGI (SF-539 CNS): > 25 µM
- GI50 (UACC-257 melanoma): > 25 µM
- TGI (UACC-257 melanoma): > 25 µM
- GI50 (PC-3 prostate): > 25 µM
- TGI (PC-3 prostate): > 25 µM
- GI50 (RPMI-8226 leukemia): > 25 µM
- TGI (RPMI-8226 leukemia): > 25 µM
- GI50 (HCT-15 colon): 24.8 µM
- TGI (HCT-15 colon): > 25 µM
- GI50 (TK-10 renal): > 25 µM
- TGI (TK-10 renal): > 25 µM
- GI50 (NCI-H460 lung): > 25 µM
- TGI (NCI-H460 lung): > 25 µM
- GI50 (SNB-75 CNS): > 25 µM
- TGI (SNB-75 CNS): > 25 µM
- GI50 (SW-620 colon): > 25 µM
- TGI (SW-620 colon): > 25 µM
- GI50 (A549 NSCLC): > 25 µM
- TGI (A549 NSCLC): > 25 µM
- GI50 (786-0 renal): > 25 µM
- TGI (786-0 renal): > 25 µM
- GI50 (HCT-116 colon): 16.4 µM
- TGI (HCT-116 colon): > 25 µM
- GI50 (CCRF-CEM leukemia): > 25 µM
- TGI (CCRF-CEM leukemia): > 25 µM
- GI50 (SK-OV-3 ovarian): > 25 µM
- TGI (SK-OV-3 ovarian): > 25 µM
- GI50 (MALME-3M melanoma): > 25 µM
- TGI (MALME-3M melanoma): > 25 µM
- GI50 (IGROV1 ovarian): > 25 µM
- TGI (IGROV1 ovarian): > 25 µM
- GI50 (SNB-19 CNS): > 25 µM
- TGI (SNB-19 CNS): > 25 µM
- GI50 (MOLT-4 leukemia): > 23.1 µM
- TGI (MOLT-4 leukemia): > 25 µM
- GI50 (HOP-62 NSCLC): > 25 µM
- TGI (HOP-62 NSCLC): > 25 µM
- GI50 (OVCAR-3 ovarian): > 25 µM
- TGI (OVCAR-3 ovarian): > 25 µM
- GI50 (U251 CNS): > 25 µM
- TGI (U251 CNS): > 25 µM
- GI50 (NCI-H226 lung): > 25 µM
- TGI (NCI-H226 lung): > 25 µM
- GI50 (BT-549 breast): > 25 µM
- TGI (BT-549 breast): > 25 µM
- GI50 (NCI-H522 lung): 24.6 µM
- TGI (NCI-H522 lung): > 25 µM
- GI50 (NCI-H23 lung): > 25 µM
- TGI (NCI-H23 lung): > 25 µM
- GI50 (COLO 205 colon): > 25 µM
- TGI (COLO 205 colon): > 25 µM
- GI50 (HL-60(TB) leukemia): > 25 µM
- TGI (HL-60(TB) leukemia): > 25 µM
- GI50 (DU-145 prostate): > 25 µM
- TGI (DU-145 prostate): > 25 µM
- GI50 (OVCAR-4 ovarian): > 21.8 µM
- TGI (OVCAR-4 ovarian): > 25 µM
- GI50 (SF-268 CNS): > 25 µM
- TGI (SF-268 CNS): > 25 µM
- GI50 (OVCAR-5 ovarian): > 25 µM
- TGI (OVCAR-5 ovarian): > 25 µM
- GI50 (UACC-62 melanoma): > 25 µM
- TGI (UACC-62 melanoma): > 25 µM
- GI50 (K-562 leukemia): > 25 µM
- TGI (K-562 leukemia): > 25 µM
- GI50 (HOP-92 NSCLC): > 25 µM
- TGI (HOP-92 NSCLC): > 25 µM
- GI50 (OVCAR-8 ovarian): > 25 µM
- TGI (OVCAR-8 ovarian): > 25 µM
- GI50 (HCC-2998 colon): > 25 µM
- TGI (HCC-2998 colon): > 25 µM
- GI50 (KM12 colon): 17 µM
- TGI (KM12 colon): > 25 µM
